Source: PubChem BioAssay (NCI)
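Five concentrations, 48 hours, 96-well plates. GI50 is the concentration that inhibits growth by half. The concentration for full growth arrest is given as TGI.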

Assays:
Assay in all cases: inhibition of tumour cell growth, NCI panel, 48 h
NCI-H23 lung = test system: NCI-H23 lung
HT29 colon = test system: HT29 colon
NCI-H522 lung = test system: NCI-H522 lung
HCT-116 colon = test system: HCT-116 colon
SK-MEL-2 melanoma = test system: SK-MEL-2 melanoma
OVCAR-5 ovarian = test system: OVCAR-5 ovarian
HL-60(TB) leukemia = test system: HL-60(TB) leukemia
HCC-2998 colon = test system: HCC-2998 colon
NCI-H226 lung = test system: NCI-H226 lung
MALME-3M melanoma = test system: MALME-3M melanoma

SMILES	GI50 (NCI-H23 lung) [µM]	TGI (NCI-H23 lung) [µM]	GI50 (HT29 colon) [µM]	TGI (HT29 colon) [µM]	GI50 (NCI-H522 lung) [µM]	TGI (NCI-H522 lung) [µM]	GI50 (HCT-116 colon) [µM]	TGI (HCT-116 colon) [µM]	GI50 (SK-MEL-2 melanoma) [µM]	TGI (SK-MEL-2 melanoma) [µM]	GI50 (OVCAR-5 ovarian) [µM]	TGI (OVCAR-5 ovarian) [µM]	GI50 (HL-60(TB) leukemia) [µM]	TGI (HL-60(TB) leukemia) [µM]	GI50 (HCC-2998 colon) [µM]	TGI (HCC-2998 colon) [µM]	TGI (NCI-H226 lung) [µM]	GI50 (NCI-H226 lung) [µM]	TGI (MALME-3M melanoma) [µM]	GI50 (MALME-3M melanoma) [µM]
CC(=O)NC1CCCN(O)C(=O)/C=C(/C)CCOC(=O)C(NC(C)=O)CCCN(O)C(=O)/C=C(/C)CCOC(=O)C(NC(C)=O)CCCN(O)C(=O)/C=C(/C)CCOC1=O.[Fe] (stereo not drawn)	> 100	> 100	> 100	> 100	> 100	> 100	> 100	> 100	> 100	> 100	> 100	> 100	> 100	> 100	> 100	> 100				
Cc1ccc2nc3sc(=O)sc3nc2c1		42.5		31.2		35.7		30.9		29		30.8		44.1		30.2	27.9			
COc1ccc(-c2nnc(Nc3nc(O)c(C4=c5cc(OC(F)(F)F)ccc5=NC4=O)s3)o2)cc1	14.1	30.6	71.4	> 100	32.4	> 100	12.5	25.4	20.3	39.3	18.2	43.6	26.6	47.7	13.4	28.6	38.1	17.4		
S=C(Nc1ccc(Cl)cc1)SC1CCCCC1		45.4		50.9		44.6		70.8		39.9		62				39.3	> 100		85.9	
NC(Cc1ccc(O)cc1)C(=O)N/N=C/c1ccc(N(CCCl)CCCl)cc1 (stereo not drawn)	12.3	> 100	28.5	> 100	25.1	> 100	21.8	> 100	60.6	> 100	27.4	> 100	0.0757	14.6	24.1	> 100	31.6	3.01		
COc1ccc(C2c3cc4c(c(OC)c3CC3OCC(=O)C32)OCO4)cc1OC (stereo not drawn)	< 0.01			0.104		0.0181	< 0.01			> 100	> 100	> 100		< 0.01			> 100	< 0.01		
COC(=O)[C@H]1CC(=O)C=C2CCCC21 (stereo partly drawn)		> 100		> 100		> 100		> 100		> 100				> 100		> 100			> 100	
O=C(O)c1ccccc1-c1ccccc1C(=O)Nc1ccc2c(c1)Cc1ccccc1-2		36.6		70.1		55.2		35.9		50.7		49.2				33.4	> 100		> 100	
O=C1C=CC(=O)c2c1cc1ccccc1c2O		27.6		24		3.98		4.05		30.9		32.5				32.8	37.6		17.2	
CCOC(=O)C/C(N)=C(\C#N)C(=O)OCC		> 100		> 100		> 100		> 100		> 100		> 100		> 100			> 100		> 100	
CCOC(=O)c1c(C(F)(F)F)n([O-])c2ccc(Cl)cc2[n+]1=O	1.71	3.43	1.9	3.83	2.11	4.3	1.86	3.43	1.94	4.34	1.76	3.32	1.93	4.07			5.78	2.13	3.42	1.73
O=C(O)/C(=C/c1ccccc1[N+](=O)[O-])c1cccs1		> 100		> 100		> 100		> 100		> 100		> 100		> 100		> 100	> 100			
CS(=O)/C(C#N)=C\C=C\c1cccc(Cl)c1 (stereo not drawn)	1.63	4.96	3.26	13.7	1.96	5.65	1.12	4.73	4.44	19.1			2.38	7.61	1.8	3.3	20.3	5.02		
Nc1ncnc2c1nc(N)n2C1OC(CO)C(O)C1O (stereo not drawn)	0.309	2.23	0.0589	1.31	0.809	2.61	0.302	10.5	0.72	2.92	0.221	15.4	0.376	3.67	0.32	1.66	3.38	1.03		
O=c1c2cc(Br)ccc2[nH]c(=S)n1-c1ccccc1		> 100		> 100				> 100		> 100		> 100				> 100	> 100		> 100	
O=[N+]([O-])c1ccc(N/N=C/c2ccccc2O)nc1	2.45	> 100	0.975	> 100	0.289	> 100	0.371	> 100	3	> 100	7.33	> 100			1.46	> 100	> 100	4.6	> 100	5.8
COc1cc(-c2nccc3[nH]c(-c4cccc5[nH]ccc45)nc23)cc(OC)c1OC	< 0.01	19.1	< 0.01	1.26			< 0.01	0.0202	< 0.01	23.5	3.89	27.6	< 0.01	< 0.01	< 0.01	2.28	22.5	4.06	15.9	2.71
CC(=O)n1cc(CC(C)O)c(=O)[nH]c1=O (stereo not drawn)		> 100		> 100		> 100		> 100		> 100		> 100		> 100			> 100			
Cc1ccc(S(=O)(=O)Nc2cccc(C)c2C)cc1		> 100		> 100				> 100				> 100		87.1		> 100	> 100		> 100	
CN(C)CCCNC(=O)c1cccc2nc3ccccc3nc12		33.5		36.5		> 100		34.7		29		54.3				50.4	39.1		19.3	
COc1ccc(/C=c2\sc3nnc(CCC(=O)Nc4cccc(C(F)(F)F)c4)n3c2=O)cc1		> 100		> 100				> 100		> 100		> 100		> 71.6		> 100	> 100		> 100	
O=S(=O)(CC(O)C(Cl)(Cl)Cl)NNc1ccccc1 (stereo not drawn)		> 100		> 100		> 100		> 100		> 100		> 100		> 100			> 100		> 100	
CCOc1ccc(/C=N\N2C(=O)c3ccccc3C2=O)cc1		> 100		> 100				> 100		> 100		> 100		> 100		> 100	> 100		> 100	
CC(N)CN.CC(N)CN.[Cl-].[O]=[Os+2]=[O] (stereo not drawn)	> 100	> 100			30.9	> 100	36.5	> 100	> 100	> 100	> 100	> 100			> 100	> 100	> 100	> 100	> 100	> 100
C=C(CS(=O)(=O)c1ccccc1)C(=O)OCC		37.2		23.3		12.9		29.9		35		34.8				35.1	58.1		39.1	
COc1cc(C2CC(=O)c3c(C)nn(-c4nc5ccccc5[nH]4)c3C2)cc(OC)c1OC (stereo not drawn)	> 100	> 100	> 100	> 100	2.64	> 100	7.39	> 100			> 100	> 100			> 100	> 100				
CN(C(=O)C12C3C4C1C1C2C3C41C(=O)N(C)C(C)(C)C)C(C)(C)C (stereo not drawn)				> 50		> 50		> 50						> 50		> 50			> 50	
O=C1c2ccccc2-c2c1c1c(O)cccc1n2CCCc1ccccc1	18.6	> 100	42.8	> 100	3.85	38.5	5.91	> 100	18.5	87.3	64	> 100	28.1	> 100	2.35	6.01	50.9	11.2		
